Reference: patent US4975354A, “Photographic element comprising an ethyleneoxy-substituted amino compound and process adapted to provide high constrast development” (Eastman Kodak Company, priority 1989, dated 1990)

Test: Example 33: Film A (no incorporated booster) in Developer A versus Film B (Compound XIII) in Developer B, 80 seconds at 30° C.
Conditions: Table III data
Method: This example was carried out using photographic elements similar to those of Examples 1 to 32 except that the nucleating agent employed was a mixture of the hydrazine compound: [drawing 33] at a coverage of 0.0121 g/m^2 and the hydrazine compound: [drawing 34] at a coverage of 0.00237 g/m^2.
A film designated Film A was prepared with no incorporated booster compound, while a film designated Film B contained 0.0861 g/m^2 of Compound XIII. A developing solution, designated Developer A, was formulated from the following ingredients: […]
A second developing solution, designated Developer B, differed from Developer A in that the 3-diethylamino-1,2-propanediol was omitted.
Film A was developed in Developer A at a pH of 11.6 for 80 seconds at 30° C. Film B was developed in Developer B for 80 seconds at 30° C. at pH levels of 11.6, 11.5 and 11.4. The pH's of the developing solutions were adjusted to the designated levels using concentrated potassium hydroxide and concentrated hydrochloric acid.

Q: Which “booster activity (in words)” value does the source give for `CCN(CC)CC(O)CO` (stereo not shown) [3-diethylamino-1,2-propanediol] here?
A: Its value is “highly effective booster compound”.
